Measurements published in paper PMC5433425 (PeerJ, 2017).
≈ marks a conversion by molar mass, not a printed value. Where “and” joins values, the source holds several entries; their conditions need not be identical. Identical values can stand only once.

Tests used:
[1] = Cytotoxicity, AlamarBlue method; format: cell-based, human; conditions: human
How it was run: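 Macrophages derived from healthy-donor PBMC monocytes (5 × 10^4 cells/well) were treated with compound for 72 h at 37 °C. Viability was read by AlamarBlue (10%, overnight, 540/590 nm fluorescence). Cytotoxicity was read as LDH release in serum-free medium, with specific lysis = (treated − spontaneous)/(maximum − spontaneous) × 100.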

[2] = test system: Enterobacter aerogenes ATCC13048; assay: MIC, antibacterial specificity; format: cell-based
[3] = test system: Staphylococcus aureus ATCC25923; assay: MIC, antibacterial specificity; format: cell-based
[4] = test system: Salmonella enterica serovar Enteritidis NCTC13349; assay: MIC, antibacterial specificity; format: cell-based
[5] = test system: panel of selected bacterial species; assay: Spectrum of activity, average MIC per bacterial group; format: cell-based
[6] = test system: Acinetobacter baumannii ATCC19606T; assay: MIC, antibacterial specificity; format: cell-based
E. coli AG100 = assay: Intracellular ATP levels determination; format: cell-based, Escherichia coli
Description: The ATP levels were measured using the ATP Determination Kit (Invitrogen, Life Technologies, Paisley, UK) according to the manufacturer’s instructions. […] A drug-free control was included in the assay to monitor the normal growth of the strain. Aliquots of bacteria were collected at 0, 1, 2, 3, 4, 5, 6, and 24 h of incubation at 37 °C, with shaking, inactivated by heating and immediately deep frozen. […] CPZ and PAβN were included for comparison.

With CN(C)CCCN1c2ccccc2Sc2ccc(Cl)cc21 [CPZ, chlorpromazine] the CC50 at 3 days [1] was 22.2 µM and the CC90 at 3 days [1] was 37 µM.

For CCCOc1ccc(-c2cc(OCCN3CCNCC3)c3ccccc3n2)cc1 [PQQ4R, 4-(2-(piperazin-1-yl)ethoxy)-2-(4-propoxyphenyl) quinolone], the MIC [2] was >256 µg/mL, the MIC [3] was 50 µg/mL (≈ 128 µM) and the MIC [4] was 256 µg/mL (≈ 654 µM). For the same compound, the “average MIC” value ([5]; Gram-negative bacteria) was ≥ 128 µg/mL, the “average MIC” value ([5]; Gram-positive bacteria) was 50 µg/mL and the “average MIC” value ([5]; acid-fast bacteria) was 32 µg/mL. The MIC [6] was 128 µg/mL (≈ 327 µM), the “ATP levels during the first 3 h of exposure” value (E. coli AG100; AG100, 320 µM (1/2 MIC) and 640 µM (MIC), same level as drug-free control) was “remained constant” and the “ATP production less than that of the drug-free control” value (E. coli AG100; AG100, half MIC (320 µM), 24 h of exposure) was 80%. The “ATP - luciferase:Lum” value (E. coli AG100; PQQ4R MIC, T1) was 438 and 716, the “ATP - luciferase:Lum” value (E. coli AG100; PQQ4R MIC, T2) was 453 and 417 and the “ATP - luciferase:Lum” value (E. coli AG100; PQQ4R MIC, T3) was 588 and 696. For the same compound, the “ATP - luciferase:Lum” value (E. coli AG100; PQQ4R MIC, T4) was 454 and 413, the “ATP - luciferase:Lum” value (E. coli AG100; PQQ4R MIC, T5) was 701 and 675 and the “ATP - luciferase:Lum” value (E. coli AG100; PQQ4R MIC, T6) was 445 and 588. The “ATP - luciferase:Lum” value (E. coli AG100; PQQ4R MIC, T24) was 545 and 530, the “ATP - luciferase:Lum” value (E. coli AG100; PQQ4R half MIC, T1) was 406 and 431 and the “ATP - luciferase:Lum” value (E. coli AG100; PQQ4R half MIC, T2) was 561 and 463. The “ATP - luciferase:Lum” value (E. coli AG100; PQQ4R half MIC, T3) was 373 and 549, the “ATP - luciferase:Lum” value (E. coli AG100; PQQ4R half MIC, T4) was 467 and 479 and the “ATP - luciferase:Lum” value (E. coli AG100; PQQ4R half MIC, T5) was 511 and 436. For the same compound, the “ATP - luciferase:Lum” value (E. coli AG100; PQQ4R half MIC, T6) was 560 and 587 and the “ATP - luciferase:Lum” value (E. coli AG100; PQQ4R half MIC, T24) was 4358 and 4198.
